In patent publication US20030161854A1, “Synergistic formulations” (priority 2000, published 2003):

Test system: 1st instar larvae of Lucilia cuprina
Assay: In-vitro investigation for possible potentiation between spinosad and ivermectin in sheep blowfly larvae (treated chromatography papers, fractions of LC90)
Format: in vivo
Details: 48 hours
Description: Forty to 50 newly hatched 1st instar larvae of Lucilia cuprina were washed with sheep serum onto chromatography papers treated with serial dilutions of ivermectin or spinosad as set out below. After 48 hours numbers of live and dead larvae were counted. The LC90 was calculated for spinosad and ivermectin. Larvae were exposed to that concentration of spinosad or ivermectin and ½, ¼ and ⅛ of the LC90. In addition larvae were exposed to 1:1, 1:4, 4:1, 9:1 and 1:9 combinations of each chemical with each concentration of chemical being a fraction of the LC90.
There were 19 treatment groups in the study (plus an untreated control group):
D 12-14: Four:one rates of Ivermectin:Spinosad—(0.8×, 0.2×), (0.4×, 0.1×) and (0.2×, 0.05×)
E 15-17: Four:one rates of Spinosad:lvermectin—(0.8×, 0.2×), (0.4×, 0.1×) and (0.2×, 0.05×)
Each group was tested on 4 replicates of 50 flies and the number of dead flies per replicate was recorded.
The method of generalized linear models for overdispersed binomial data using the logistic link function was used for an analysis of the 19 treatment groups. The analysis estimated dose-response lines (on the logarithmic dose scale) for each chemical or combination. The lines for each separate chemical were used to predict the efficacy (on the logistic scale) of the combinations assuming independent action, i.e. with no synergism. These were compared with the efficacy observed or predicted from the dose-response lines for the combinations.

| Substance | Mean efficacy (Dose-response) % (0.125x LC90) [%] | Mean efficacy (Dose-response) Logit (0.125x LC90) | Mean efficacy (Sample estimate) % (0.125x LC90) [%] | Mean efficacy (Sample estimate) Logit (0.125x LC90) | Mean efficacy (Dose-response) % (0.25x LC90) [%] | Mean efficacy (Dose-response) Logit (0.25x LC90) | Mean efficacy (Sample estimate) % (0.25x LC90) [%] | Mean efficacy (Sample estimate) Logit (0.25x LC90) | Mean efficacy (Dose-response) % (0.5x LC90) [%] | Mean efficacy (Dose-response) Logit (0.5x LC90) | Mean efficacy (Sample estimate) % (0.5x LC90) [%] | Mean efficacy (Sample estimate) Logit (0.5x LC90) | Mean efficacy (Dose-response) % (1.0x LC90) [%] | Mean efficacy (Dose-response) Logit (1.0x LC90) | Mean efficacy (Sample estimate) % (1.0x LC90) [%] | Mean efficacy (Sample estimate) Logit (1.0x LC90) |
| --- | --- | --- | --- | --- | --- | --- | --- | --- | --- | --- | --- | --- | --- | --- | --- | --- |
| ivermectin | 1.6 | −4.14 ± 0.48 | 3.0 | −3.48 ± 0.64 | 13.2 | −1.88 ± 0.26 | 11.0 | −2.09 ± 0.35 | 59.4 | 0.38 ± 0.18 | 59.5 | 0.38 ± 0.22 | 93.3 | 2.64 ± 0.34 | 94.0 | 2.75 ± 0.46 |
| spinosad | 9.8 | −2.21 ± 0.28 | 16.0 | −1.66 ± 0.30 | 30.7 | −0.81 ± 0.17 | 22.0 | −1.27 ± 0.27 | 64.1 | 0.58 ± 0.16 | 63.0 | 0.53 ± 0.23 | 87.9 | 1.98 ± 0.27 | 91.5 | 2.38 ± 0.39 |
